For 16 compounds, EC50 results are on record in patent US20240166693A1, “METHODS AND COMPOUNDS FOR MODULATING MYOTONIC DYSTROPY 1” (Design Therapeutics, Inc., priority 2020, published 2024).

Like-named read-outs stand apart in the source and are kept apart here.

One may read the EC50 as the concentration at which the effect is half-maximal.

This experiment concerns Myotonic Dystrophy 1 affected patient fibroblasts (Coriell GM04602; 1600 CTG repeats). In words: DM1 foci reduction assay (CAG10-Cy3 FISH, average foci per nucleus). In kind it is cell-based. As to conditions: Homo sapiens, Fibroblast. The method, boiled down:
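DM1 patient fibroblasts (GM04602, 1600 CTG) treated 48 h at 37 °C, 8-point 1:3 dilutions from 3 μM top dose; wild-type GM07492 as control. PFA-fixed, ethanol-permeabilized cells hybridized overnight with 5 nM CAG10-Cy3 probe, DAPI-counterstained, imaged at 20× in 4 fields; average foci per nucleus per well.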

[1] abbreviates: 48 h, read-out: Foci Reduction in Fibroblast EC50, 48 h (nM).
The mark [2] stands for this setting: DM1 fibroblasts, 48 h treatment, 8-point dose response, 3 μM top dose, read-out: Foci Reduction in Fibroblast EC50, 48 h.

`CCN(CC)CCCC[C@H](NC(=O)[C@H](CC(C)C)NC(=O)[C@H](C)NC(=O)[C@H](Cc1ccccc1)NC(=O)c1ccc(C(C)(C)C)cc1)C(=O)N[C@@H](CO)C(=O)NCCOCCOCCOCCOCCOCC(=O)N[C@H](CCNC(=O)c1cc(NC(=O)c2nc(NC(=O)CCNC(=O)c3cc(NC(=O)c4nccn4C)cn3C)cn2C)cn1C)C(=O)Nc1cn(C)c(C(=O)Nc2cc(C(=O)NCCC(=O)Nc3cn(C)c(C(=O)Nc4cc(C(=O)NCCO)n(C)c4)n3)n(C)c2)n1` [Compound 134]: the half-maximal effective concentration (EC50) under setting [1] was above 500 nM.

As for `CCN(CC)CCCC[C@H](NC(=O)[C@H](CC(C)C)NC(=O)[C@H](C)NC(=O)[C@H](Cc1ccccc1)NC(=O)c1ccc(C(C)(C)C)cc1)C(=O)N[C@@H](CO)C(=O)NCCOCCOCCOCCOCCOCCNC(=O)CCNC(=O)c1cc(NC(=O)c2nc(NC(=O)CCNC(=O)c3cc(NC(=O)c4nc(NC(=O)CCCNC(=O)c5cc(NC(=O)c6nc(NC(=O)CCNC(=O)c7cc(NC(=O)c8nccn8C)cn7C)cn6C)cn5C)cn4C)cn3C)cn2C)cn1C` [Compound 135], the EC50 under setting [1] was above 500 nM.

For `CCCNC(=O)CCNC(=O)c1nc(NC(=O)c2nc(NC(=O)CCNC(=O)c3nc(NC(=O)[C@@H](CCNC(=O)c4cc(NC(=O)c5nc(NC(=O)CCNC(=O)c6cc(NC(=O)c7nccn7C)cn6C)cn5C)cn4C)NC(=O)COCCOCCOCCOCCOCCNC(=O)[C@H](CO)NC(=O)[C@H](CCCCN(CC)CC)NC(=O)[C@H](CC(C)C)NC(=O)[C@H](C)NC(=O)[C@H](Cc4ccccc4)NC(=O)c4ccc(C(C)(C)C)cc4)cn3C)cn2C)cn1C` [Compound 137], the half-maximal effective concentration (EC50) under setting [1] was below 100 nM.

Turning to `CCN(CC)CCCC[C@H](NC(=O)CCCCOCCNC(=O)c1ccc(C(C)(C)C)cc1)C(=O)N[C@@H](CO)C(=O)NCCOCCOCCOCCOCCOCCNC(=O)CCNC(=O)c1nc(NC(=O)c2cc(NC(=O)CCNC(=O)c3nc(NC(=O)CCCNC(=O)c4cc(NC(=O)c5nc(NC(=O)CCNC(=O)c6cc(NC(=O)c7nccn7C)cn6C)cn5C)cn4C)cn3C)cn2C)cn1C` [Compound 138], the EC50 under setting [1] is 100 to 500 nM.

For `CCN(CC)CCCC[C@H](NC(=O)CCCCCCCNC(=O)c1ccc(C(C)(C)C)cc1)C(=O)N[C@@H](CO)C(=O)NCCOCCOCCOCCOCCOCCNC(=O)CCNC(=O)c1nc(NC(=O)c2cc(NC(=O)CCNC(=O)c3nc(NC(=O)CCCNC(=O)c4cc(NC(=O)c5nc(NC(=O)CCNC(=O)c6cc(NC(=O)c7nccn7C)cn6C)cn5C)cn4C)cn3C)cn2C)cn1C` [Compound 139], the 50% effective concentration (EC50) under setting [1] was below 100 nM.

For the compound `CCN(CC)CCCC[C@H](NC(=O)COCCOCCOCCNC(=O)c1ccc(C(C)(C)C)cc1)C(=O)N[C@@H](CO)C(=O)NCCOCCOCCOCCOCCOCCNC(=O)CCNC(=O)c1nc(NC(=O)c2cc(NC(=O)CCNC(=O)c3nc(NC(=O)CCCNC(=O)c4cc(NC(=O)c5nc(NC(=O)CCNC(=O)c6cc(NC(=O)c7nccn7C)cn6C)cn5C)cn4C)cn3C)cn2C)cn1C` [Compound 140], under setting [1], the EC50 was 100 to 500 nM.

Take `CCN(CC)CCCC[C@H](NC(=O)CCCCOCCOCCNC(=O)c1ccc(C(C)(C)C)cc1)C(=O)N[C@@H](CO)C(=O)NCCOCCOCCOCCOCCOCCNC(=O)CCNC(=O)c1nc(NC(=O)c2cc(NC(=O)CCNC(=O)c3nc(NC(=O)CCCNC(=O)c4cc(NC(=O)c5nc(NC(=O)CCNC(=O)c6cc(NC(=O)c7nccn7C)cn6C)cn5C)cn4C)cn3C)cn2C)cn1C` [Compound 141]: the EC50 under setting [1] lay within 100 to 500 nM.

For the compound `COc1cccc(C(=O)N2CCN(C(=O)CN(CCOCCOCCOCCOCCOCCNC(=O)CCNC(=O)c3nc(NC(=O)c4cc(NC(=O)CCNC(=O)c5nc(NC(=O)CCCNC(=O)c6cc(NC(=O)c7nc(NC(=O)CCNC(=O)c8cc(NC(=O)c9nccn9C)cn8C)cn7C)cn6C)cn5C)cn4C)cn3C)c3cccc(C)c3)CC2)c1OC` [Compound 142], the concentration for a half-maximal effect (EC50) under setting [2] fell in the range of 100 to 500 nM.

In the case of `COc1cccc(C(=O)N2CCN(C(=O)CN(C(=O)COCCOCCOCCOCCOCCNC(=O)CCNC(=O)c3nc(NC(=O)c4cc(NC(=O)CCNC(=O)c5nc(NC(=O)CCCNC(=O)c6cc(NC(=O)c7nc(NC(=O)CCNC(=O)c8cc(NC(=O)c9nccn9C)cn8C)cn7C)cn6C)cn5C)cn4C)cn3C)c3ccc(NC(N)=O)c(C)c3)CC2)c1OC` [Compound 143], the concentration for a half-maximal effect (EC50) under setting [2] is above 500 nM.

As to `CC(C)CN(CCCC[C@H](NC(=O)COCCOCCNC(=O)c1ccc(C(C)(C)C)cc1)C(=O)N[C@@H](CO)C(=O)NCCOCCOCCOCCOCCOCCNC(=O)CCNC(=O)c1nc(NC(=O)c2cc(NC(=O)CCNC(=O)c3nc(NC(=O)CCCNC(=O)c4cc(NC(=O)c5nc(NC(=O)CCNC(=O)c6cc(NC(=O)c7nccn7C)cn6C)cn5C)cn4C)cn3C)cn2C)cn1C)C1CC2CCC1C2` (stereo partly shown) [Compound 144], under setting [1], the concentration giving a half-maximal response (EC50) was below 100 nM.

For `CC(C)C[C@H](NC(=O)[C@H](Cc1ccccc1)NC(=O)[C@H](CCCCN(C)C(C)C)NC(=O)[C@@H]1C[C@@H]2CCCC[C@@H]2N1)C(=O)NCCOCCOCCOCCOCCOCCNC(=O)CCNC(=O)c1nc(NC(=O)c2cc(NC(=O)CCNC(=O)c3nc(NC(=O)CCCNC(=O)c4cc(NC(=O)c5nc(NC(=O)CCNC(=O)c6cc(NC(=O)c7nccn7C)cn6C)cn5C)cn4C)cn3C)cn2C)cn1C` [Compound 145], under setting [1], the half-maximal effective concentration (EC50) was 100 to 500 nM.

Regarding `CN(C)[C@H]1CN(C2CCc3cccc(F)c32)C[C@@H]1c1ccc(N2CCN(C(=O)COCCOCCOCCOCCOCCNC(=O)CCNC(=O)c3nc(NC(=O)c4cc(NC(=O)CCNC(=O)c5nc(NC(=O)CCCNC(=O)c6cc(NC(=O)c7nc(NC(=O)CCNC(=O)c8cc(NC(=O)c9nccn9C)cn8C)cn7C)cn6C)cn5C)cn4C)cn3C)CC2)cc1` (stereo partly shown) [Compound 146], the EC50 under setting [2] was above 500 nM.

Turning to `CN(C)[C@H]1CN(C2CCc3cccc(F)c32)C[C@@H]1c1ccc(N2CCN(S(=O)(=O)CCOCCOCCOCCOCCOCCNC(=O)CCNC(=O)c3nc(NC(=O)c4cc(NC(=O)CCNC(=O)c5nc(NC(=O)CCCNC(=O)c6cc(NC(=O)c7nc(NC(=O)CCNC(=O)c8cc(NC(=O)c9nccn9C)cn8C)cn7C)cn6C)cn5C)cn4C)cn3C)CC2)cc1` (stereo partly shown) [Compound 147], the concentration for a half-maximal effect (EC50) under setting [2] is above 500 nM.

Turning to `CC(C)CN(CCCC[C@H](NC(=O)[C@H](CCCN1CCOCC1)NC(=O)[C@@H](NC(=O)[C@H](Cc1ccccc1)NC(=O)c1ccc(C(C)(C)C)cc1)C1CCC1)C(=O)N[C@@H](CO)C(=O)NCCOCCOCCOCCOCCOCCNC(=O)CCNC(=O)c1nc(NC(=O)c2cc(NC(=O)CCNC(=O)c3nc(NC(=O)CCCNC(=O)c4cc(NC(=O)c5nc(NC(=O)CCNC(=O)c6cc(NC(=O)c7nccn7C)cn6C)cn5C)cn4C)cn3C)cn2C)cn1C)C1CC2CCC1C2` (stereo partly shown) [Compound 148], under setting [1], the EC50 was above 500 nM.

On to `CN(CCCC[C@H](NC(=O)[C@H](CCCN1CCOCC1)NC(=O)[C@@H](NC(=O)[C@H](Cc1ccccc1)NC(=O)c1ccc(C(C)(C)C)cc1)C1CCC1)C(=O)N[C@@H](CO)C(=O)NCCOCCOCCOCCOCCOCCNC(=O)CCNC(=O)c1nc(NC(=O)c2cc(NC(=O)CCNC(=O)c3nc(NC(=O)CCCNC(=O)c4cc(NC(=O)c5nc(NC(=O)CCNC(=O)c6cc(NC(=O)c7nccn7C)cn6C)cn5C)cn4C)cn3C)cn2C)cn1C)C1CC2CCC1C2` (stereo partly shown) [Compound 149], for which the half-maximal effective concentration (EC50) under setting [1] lay within 100 to 500 nM.

With `CCN(CC)CCCC[C@H](NC(=O)COCCNC(=O)c1cnn(-c2ccc(C(C)(C)C)cc2)c1)C(=O)N[C@@H](CO)C(=O)NCCOCCOCCOCCOCCOCCNC(=O)CCNC(=O)c1nc(NC(=O)c2cc(NC(=O)CCNC(=O)c3nc(NC(=O)CCCNC(=O)c4cc(NC(=O)c5nc(NC(=O)CCNC(=O)c6cc(NC(=O)c7nccn7C)cn6C)cn5C)cn4C)cn3C)cn2C)cn1C` [Compound 150], the EC50 under setting [1] is above 500 nM.
